# Laboratory results reported in patent publication US20030198690A1, “Device and method for treating restenosis” (Medical Research Fund of Tel Aviv Sourasky Medical Center, priority 2002, published 2003).
# Experiments:
# Wistar rats = experiment: Balloon dilation carotid injury in rats, morphometric and immunohistochemical analysis of arteries; assay type: in vivo
# Description: (§1) Carotid injury was induced in Wistar rats by balloon dilation according to a conventional model (Clowes A W, Reidy M A, Clowes M M. Kinetic of cellular proliferation after arterial injury. Lab Invest 1983; 49:327-334). Rats were then injected daily i.p. with either zinc (at a concentration of 5 mg/kg) or saline (control) for 2 weeks until sacrifice. Arteries were taken for morphometeric and immunohistochemical analysis.
# [1] = Levels of serum zinc in treated rats; assay type: in vivo, Wistar rats; conditions: zinc 5 mg/kg i.p. daily for 2 weeks; p<0.01 vs control rats
# Description: as §1
# Levels of serum zinc were elevated in the zinc-treated rats (248.2±19.4 pg/ml) as compared to the control rats (136.8±7.2 pg/ml; p<0.01).
structure (smiles),measurement,setting,value
[Zn] [zinc],inflammatory cell infiltrate (NF-κB and iNOS positive cells),"Wistar rats; immunohistochemical staining of arteries, zinc 5 mg/kg i.p. daily for 2 weeks",a reduction was evident
same,external elastic lamina size,Wistar rats; zinc 5 mg/kg i.p. daily for 2 weeks after carotid balloon injury,without influencing
same,neointimal area,"Wistar rats; zinc 5 mg/kg i.p. daily for 2 weeks after carotid balloon injury, FIG. 1",reduced
same,neointimal/medial ratio,"Wistar rats; zinc 5 mg/kg i.p. daily for 2 weeks after carotid balloon injury, FIG. 2",reduced
same,Levels of serum zinc,[1],0.2482 ± 0.0194 ng/mL
